From the NIST ThermoML archive (doi:10.1021/je301283e)

Details: Liquid, Drop volume

CCCCCCC [heptane] + O=C=O
interfacial tension [mN/m]
Details	313.15 K	333.15 K	353.15 K	373.15 K	393.15 K
340 kPa	16.27	14.24	12.36	11	9.62
690 kPa	15.56	13.68	11.92	10.64	9.29
1030 kPa	14.88	13.1	11.46	10.29	8.99
1380 kPa	14.23	12.54	10.99	9.87	8.73
1720 kPa	13.42	12	10.6	9.54	8.45
2070 kPa	12.71	11.38	10.13	9.27	8.23
2410 kPa	12.05	10.8	9.78	8.84	7.93
2760 kPa	11.17	10.2	9.24	8.45	7.63
3100 kPa	10.54	9.62	8.71	8.1	7.32
3450 kPa	9.76	8.92	8.19	7.67	7.1
3800 kPa	9.04	8.32	7.86	7.35	6.84
4140 kPa	8.36	7.76	7.34	7	6.61
4480 kPa	7.47	7.23	6.95	6.68	6.25
4830 kPa	6.74	6.66	6.5	6.35	6
5170 kPa	5.87	6.1	6.11	5.95	5.74
5510 kPa	5.1	5.58	5.83	5.68	5.44
5860 kPa	4.23	5.11	5.46	5.41	5.24
6200 kPa	3.59	4.61	4.95	5.08	4.96
6550 kPa	3.07	4.04	4.41	4.69	4.68
6890 kPa	2.39	3.52	4.01	4.38	4.37
7240 kPa	–	3.02	3.61	3.94	4.1
7580 kPa	–	2.4	3.22	3.67	3.81
